Results taken from patent US6576625B2, “Targeted vesicular constructs for cytoprotection and treatment of H. pylori infections” (Panacea Biotic Limited, priority 2001, dated 2003).

System: NSAID induced, gastric lesions followed by colonization of gastric mucosa by orally delivered H. felis
Assay: Ulcer healing (cytorepairing and cytoprotective performance) in rats, Sakita's classification
Type: in vivo, albino male rats of Wistar origin
Conditions: at the same MIC90 level
Description: The cytorepairing and cytoprotective performance of the prepared liposomes was assessed in albino male rats of Wistar origin. The level of ulcer healing (%RUh) following the administration of liposomes against the NSAID induced, gastric lesions followed by colonization of gastric mucosa by orally delivered H. felis suspension culture was studied. The degree of ulceration and rate of ulcer healing was determined following the classification of Sakita (Sakita, T., Oguro, Y., Miwa, T., 1981, In: Handbook of Intestinal Endoscopy 1 ed., Tokyo: Chugi-Igakusha, 375-396) and Tamada (Tamada, F., 1992, In: Diagnostic and Therapeutic Gastrointestinal Endoscopy, KSH Hospital, 23-25), both incorporated herein by reference. Histopathological examination of the gastric mucosa was done using phase contrast research microscope (Leitz-Biomed, Germany).

SMILES: CC1(C)S[C@@H]2[C@H](NC(=O)[C@H](N)c3ccc(O)cc3)C(=O)N2[C@H]1C(=O)O [amoxycillin, Amoxycillin]
- recovery (ulcer healing): 33.3%
